These results are taken from patent US12115156B2, “Compositions of CXCR4 inhibitors and methods of preparation and use” (X4 Pharmaceuticals, Inc., priority 2018, dated 2024).

Data set [1] deals with advanced clear-cell renal cell carcinoma. Particulars: cited from earlier work; for objective response rate: nivolumab 3 mg/kg intravenously every two weeks or everolimus 10 mg tablet orally daily, previously treated patients, P<0.001.
A short description of data set [2]: Mutagenic Risk Assessment in accordance with ICH M7(R1). The following applies: impurities in the synthetic process for X4P-001. The protocol:
The assessment included review of all raw materials, including key starting materials, as well as the potential and actual process impurities and degradation products. All assessments were carried out in accordance with ICH M7(R1) guidance.

Data set [3] can be described thus: in vivo. The following applies: terminal half-life.
The conditions of data set [4]: in vivo.
Data set [5] in a line: Persistence of the imine impurity HPLC-MS peak in acidic aqueous media. The class given is physicochemical. The following applies: X4P-001 solubilized in acidic aqueous media. From the text:
The imine impurity, I-1, and likely route of formation are shown in Scheme 1, below.

Setting [6] is: nivolumab compared to everolimus.

The term half-life denotes how long it takes for the measured level to halve.

With `CO[C@H]1C[C@@H]2CC[C@@H](C)[C@@](O)(O2)C(=O)C(=O)N2CCCC[C@H]2C(=O)O[C@H]([C@H](C)C[C@@H]2CC[C@@H](OCCO)[C@H](OC)C2)CC(=O)[C@H](C)/C=C(\C)[C@@H](O)[C@@H](OC)C(=O)[C@H](C)C[C@H](C)/C=C/C=C/C=C/1C` [everolimus], in data set [1], the objective response rate is 5%. Turning to `ClCc1nc2ccccc2[nH]1` [I-8, 2-chloromethylbenzimidazole], the mutagenicity assessment entry in data set [2] is “potentially mutagenic”. For `CC(C)(C)OC(=O)n1c(CCl)nc2ccccc21` [I-9, boc-2-chloromethylbenzimidazole], the mutagenicity assessment entry in data set [2] is “potentially mutagenic”. Compound `NCCCCN(Cc1nc2ccccc2[nH]1)[C@H]1CCCc2cccnc21` [X4P-001] came in with a half-life in data set [3] of 12 to 24 h. The terminal half-life entry in data set [4] is “approximately 14.5 hrs”. Take `CC(C)(C)OC(=O)n1c(CI)nc2ccccc21` [I-11]: the mutagenicity assessment result in data set [2] is “potentially mutagenic”. As to `C=NCCCCN(Cc1nc2ccccc2[nH]1)[C@H]1CCCc2cccnc21` [I-1, (S)-N-((1H-benzo[d]imidazol-2-yl)methyl)-N-(4-(methyleneamino)butyl)-5,6,7,8-tetrahydroquinolin-8-amine], the “stability of the impurity peak (RRT 1.13)” value in data set [5] is on record as “disappears after a few hours”. For “nivolumab: fully human IgG4 monoclonal antibody binding to the programmed cell death 1 (PD-1) receptor”, the objective response rate in data set [1] is listed as 25%. In data set [1] (setting [6]), the “hazard ratio for death” value is reported as “decreased”, the “incidence of Grade 3 or 4 treatment-related adverse events” value is listed as “lower” and the median overall survival result was “longer”. Turning to `ICc1nc2ccccc2[nH]1` [I-10], in data set [2], the mutagenicity assessment entry is reported as “potentially mutagenic”.
